Measured values published in PubChem BioAssay (NCI).
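Results reflect a 48-hour exposure of cells in 96-well plates to compound at five concentrations. At the GI50, growth is halved. TGI marks complete inhibition of growth.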

Columns and labels:
Assay in all cases: NCI anticancer screen, dose series, 48 h
MDA-MB-231 breast = system: MDA-MB-231 breast
SW-620 colon = system: SW-620 colon
NCI/ADR-RES ovarian = system: NCI/ADR-RES ovarian
HOP-62 NSCLC = system: HOP-62 NSCLC
SK-MEL-2 melanoma = system: SK-MEL-2 melanoma
K-562 leukemia = system: K-562 leukemia
A549 NSCLC = system: A549 NSCLC
CCRF-CEM leukemia = system: CCRF-CEM leukemia
LOX IMVI melanoma = system: LOX IMVI melanoma
CAKI-1 renal = system: CAKI-1 renal
MCF7 breast = system: MCF7 breast
HT29 colon = system: HT29 colon
NCI-H460 lung = system: NCI-H460 lung
U251 CNS = system: U251 CNS
SF-539 CNS = system: SF-539 CNS
TK-10 renal = system: TK-10 renal
PC-3 prostate = system: PC-3 prostate
MALME-3M melanoma = system: MALME-3M melanoma
NCI-H23 lung = system: NCI-H23 lung
HCT-15 colon = system: HCT-15 colon
786-0 renal = system: 786-0 renal
SN12C renal = system: SN12C renal
IGROV1 ovarian = system: IGROV1 ovarian
OVCAR-4 ovarian = system: OVCAR-4 ovarian
HCT-116 colon = system: HCT-116 colon
UACC-257 melanoma = system: UACC-257 melanoma
BT-549 breast = system: BT-549 breast
SK-OV-3 ovarian = system: SK-OV-3 ovarian
HL-60(TB) leukemia = system: HL-60(TB) leukemia
SK-MEL-5 melanoma = system: SK-MEL-5 melanoma
OVCAR-3 ovarian = system: OVCAR-3 ovarian
M14 melanoma = system: M14 melanoma
SNB-75 CNS = system: SNB-75 CNS
COLO 205 colon = system: COLO 205 colon
NCI-H226 lung = system: NCI-H226 lung
UO-31 renal = system: UO-31 renal
RPMI-8226 leukemia = system: RPMI-8226 leukemia
SF-295 CNS = system: SF-295 CNS
SR leukemia = system: SR leukemia
OVCAR-8 ovarian = system: OVCAR-8 ovarian
A498 renal = system: A498 renal
KM12 colon = system: KM12 colon
EKVX NSCLC = system: EKVX NSCLC
RXF 393 renal = system: RXF 393 renal
SK-MEL-28 melanoma = system: SK-MEL-28 melanoma
NCI-H522 lung = system: NCI-H522 lung
HOP-92 NSCLC = system: HOP-92 NSCLC
SNB-19 CNS = system: SNB-19 CNS
HCC-2998 colon = system: HCC-2998 colon
DU-145 prostate = system: DU-145 prostate
ACHN renal = system: ACHN renal
HS 578T breast = system: HS 578T breast
MDA-MB-435 = system: MDA-MB-435
OVCAR-5 ovarian = system: OVCAR-5 ovarian
T-47D breast = system: T-47D breast
MOLT-4 leukemia = system: MOLT-4 leukemia
UACC-62 melanoma = system: UACC-62 melanoma
SF-268 CNS = system: SF-268 CNS

Structure (SMILES): CC(=O)Oc1ccc(C23c4ccccc4C2(OC(C)=O)c2cc(OC(C)=O)ccc23)cc1 (stereo unspecified)
- GI50 (MDA-MB-231 breast): 6 µM
- TGI (MDA-MB-231 breast): 33.1 µM
- GI50 (SW-620 colon): 3.73 µM
- TGI (SW-620 colon): 12.7 µM
- GI50 (NCI/ADR-RES ovarian): 2.82 µM
- TGI (NCI/ADR-RES ovarian): 10.2 µM
- GI50 (HOP-62 NSCLC): 8.78 µM
- TGI (HOP-62 NSCLC): 34.5 µM
- GI50 (SK-MEL-2 melanoma): 27.7 µM
- TGI (SK-MEL-2 melanoma): 94.3 µM
- GI50 (K-562 leukemia): 4.04 µM
- TGI (K-562 leukemia): > 100 µM
- GI50 (A549 NSCLC): 17.6 µM
- TGI (A549 NSCLC): 70.2 µM
- GI50 (CCRF-CEM leukemia): 3.05 µM
- TGI (CCRF-CEM leukemia): 12.4 µM
- GI50 (LOX IMVI melanoma): 3.48 µM
- TGI (LOX IMVI melanoma): 12.8 µM
- GI50 (CAKI-1 renal): 4.08 µM
- TGI (CAKI-1 renal): 17.2 µM
- GI50 (MCF7 breast): 16.6 µM
- TGI (MCF7 breast): > 100 µM
- GI50 (HT29 colon): 39.7 µM
- TGI (HT29 colon): > 100 µM
- GI50 (NCI-H460 lung): 12.3 µM
- TGI (NCI-H460 lung): 44.4 µM
- GI50 (U251 CNS): 2.34 µM
- TGI (U251 CNS): 5.63 µM
- GI50 (SF-539 CNS): 6.48 µM
- TGI (SF-539 CNS): 28.6 µM
- GI50 (TK-10 renal): 6.23 µM
- TGI (TK-10 renal): > 100 µM
- GI50 (PC-3 prostate): 3 µM
- TGI (PC-3 prostate): 11.9 µM
- GI50 (MALME-3M melanoma): 9.61 µM
- TGI (MALME-3M melanoma): 27.3 µM
- GI50 (NCI-H23 lung): 10.2 µM
- TGI (NCI-H23 lung): 28.5 µM
- GI50 (HCT-15 colon): 3.81 µM
- TGI (HCT-15 colon): 17.7 µM
- GI50 (786-0 renal): 6.56 µM
- TGI (786-0 renal): 20.5 µM
- GI50 (SN12C renal): 5.37 µM
- TGI (SN12C renal): 20.2 µM
- GI50 (IGROV1 ovarian): 5.86 µM
- TGI (IGROV1 ovarian): 27.2 µM
- GI50 (OVCAR-4 ovarian): 30 µM
- TGI (OVCAR-4 ovarian): > 100 µM
- GI50 (HCT-116 colon): 3.56 µM
- TGI (HCT-116 colon): 12.7 µM
- GI50 (UACC-257 melanoma): 22.9 µM
- TGI (UACC-257 melanoma): 60.8 µM
- GI50 (BT-549 breast): 2.76 µM
- TGI (BT-549 breast): 6.49 µM
- GI50 (SK-OV-3 ovarian): 20.5 µM
- TGI (SK-OV-3 ovarian): 47.6 µM
- GI50 (HL-60(TB) leukemia): 2.41 µM
- TGI (HL-60(TB) leukemia): 6.72 µM
- GI50 (SK-MEL-5 melanoma): 6.19 µM
- TGI (SK-MEL-5 melanoma): 20.3 µM
- GI50 (OVCAR-3 ovarian): 8.32 µM
- TGI (OVCAR-3 ovarian): 52.9 µM
- GI50 (M14 melanoma): 14 µM
- TGI (M14 melanoma): 32.1 µM
- GI50 (SNB-75 CNS): 6.49 µM
- TGI (SNB-75 CNS): 54.7 µM
- GI50 (COLO 205 colon): 14.5 µM
- TGI (COLO 205 colon): 29.1 µM
- GI50 (NCI-H226 lung): 20.4 µM
- TGI (NCI-H226 lung): 63.2 µM
- GI50 (UO-31 renal): 1.85 µM
- TGI (UO-31 renal): 5.02 µM
- GI50 (RPMI-8226 leukemia): 2.29 µM
- TGI (RPMI-8226 leukemia): 6.66 µM
- GI50 (SF-295 CNS): 4.37 µM
- TGI (SF-295 CNS): 20.4 µM
- GI50 (SR leukemia): 3.14 µM
- TGI (SR leukemia): 24.2 µM
- GI50 (OVCAR-8 ovarian): 4.28 µM
- TGI (OVCAR-8 ovarian): 49.5 µM
- GI50 (A498 renal): 34.8 µM
- TGI (A498 renal): > 100 µM
- GI50 (KM12 colon): 3.34 µM
- TGI (KM12 colon): 11.2 µM
- GI50 (EKVX NSCLC): 3.52 µM
- TGI (EKVX NSCLC): 16.6 µM
- GI50 (RXF 393 renal): 3.38 µM
- TGI (RXF 393 renal): 12.3 µM
- GI50 (SK-MEL-28 melanoma): 31.6 µM
- TGI (SK-MEL-28 melanoma): > 100 µM
- GI50 (NCI-H522 lung): 2.81 µM
- TGI (NCI-H522 lung): 8.04 µM
- GI50 (HOP-92 NSCLC): 5.01 µM
- TGI (HOP-92 NSCLC): 20.3 µM
- GI50 (SNB-19 CNS): 4.64 µM
- TGI (SNB-19 CNS): 15.5 µM
- GI50 (HCC-2998 colon): 2.91 µM
- TGI (HCC-2998 colon): 8.46 µM
- GI50 (DU-145 prostate): 6.88 µM
- TGI (DU-145 prostate): 20.7 µM
- GI50 (ACHN renal): 1.94 µM
- TGI (ACHN renal): 5.4 µM
- GI50 (HS 578T breast): 2.93 µM
- TGI (HS 578T breast): > 100 µM
- GI50 (MDA-MB-435): 4.9 µM
- TGI (MDA-MB-435): 25.6 µM
- GI50 (OVCAR-5 ovarian): 5.54 µM
- TGI (OVCAR-5 ovarian): 18 µM
- GI50 (T-47D breast): 2.22 µM
- TGI (T-47D breast): 7.45 µM
- GI50 (MOLT-4 leukemia): 7.27 µM
- TGI (MOLT-4 leukemia): 72.2 µM
- GI50 (UACC-62 melanoma): 3.69 µM
- TGI (UACC-62 melanoma): 13.7 µM
- GI50 (SF-268 CNS): 5.54 µM
- TGI (SF-268 CNS): 22 µM
